Structures can show the parent of a compound that is named as a salt.
Tests used:
formalin-induced pain = assay: formalin test; type: in vivo, mice; conditions: mice; for influence on the analgesic effect of E153, late phase of the formalin test: 15 mg/kg given 10 min before E153 (15 mg/kg i.p.); for duration of the nociceptive response, late phase of the formalin test: single administration alone, 15 mg/kg; for duration of the nociceptive response, acute phase of the formalin test: i.p. 30 min before test, 0–5 min after formalin
Procedure: The mice received an intraperitoneal (i.p.) injection of either the test compound or a control solution. After 30 min, a 20 μL injection of a 2.5% formalin solution was administered into the right hind paw. Right after the formalin injection, the animals were individually placed into glass containers and observed for the following 30 min. During specific time intervals (0–5 min, referred to as Phase I, and 15–30 min, referred to as Phase II, post-formalin injection), the time spent by the animals licking or biting the injected paw was recorded..

[1] = test system: histamine-induced pruritus; assay: histamine-induced pruritus; type: in vivo; conditions: mice; for influence on the antipruritic activity of E153, histamine-induced pruritus: 15 mg/kg given 10 min before E153 (5 mg/kg i.p.)
Procedure: (§1) The area (around 2 cm^2) of the nape of mice was shaved at least 2 days prior to experiments. On the day of the experiment, each mouse was individually placed in plastic chambers (15 × 15 × 30 cm). After the 30 min period of habituation, the mice received an intradermal (i.d.) injection of histamine dihydrochloride (10 µmol/site), chloroquine (CQ, 200 µg/site), or SLIGRL-NH2 (40 nmol/site), which were dissolved in physiological saline and administrated at the constant volume of 20 μL. Immediately following the injection, scratching (series of movements considered as a single scratching bout usually consisted of three single scratches) of the injected site by the hind paw was counted for 60 min, 30 min, or 45 min after histamine, CQ, and SLIGRL-NH2 injection, respectively.

CQ-induced pruritus = assay: chloroquine (CQ)-induced pruritus; type: in vivo, mice; conditions: mice, 10 mg/kg i.p.; 30 min observation
Procedure: as §1

SLIGRL-induced pruritus = assay: SLIGRL-induced pruritus; type: in vivo; conditions: mice, 10 mg/kg i.p.; 45 min observation
Procedure: as §1

| SMILES | influence on the analgesic effect of E153, late phase of the formalin test (formalin-induced pain) | duration of the nociceptive response, late phase of the formalin test (formalin-induced pain) | influence on the antipruritic activity of E153, histamine-induced pruritus [1] | scratching behavior, histamine-induced pruritus ([1]; administered alone, 15 mg/kg) | duration of the nociceptive response, acute phase of the formalin test (formalin-induced pain) | further results |
| --- | --- | --- | --- | --- | --- | --- |
| C[C@@H](N)Cc1c[nH]cn1 [RAMH, (R)-(-)-α-methylhistamine] | antagonized the effects of test compound | did not change | had no effect | did not alter animal scratching behavior |  |  |
| Cl.O=C(OCCN1CCOCC1)C1(c2ccccc2)CCCCC1 [PRE-084, 2-[4-morpholinethyl]1-phenylcyclohexanecarboxylate hydrochloride] | antagonized the effects of test compound | did not change | significant decrease in E153 activity | did not alter animal scratching behavior |  |  |
| Cc1cc(OCCN2CCOCC2)nn1-c1ccc2ccccc2c1.Cl [Compound S1RA, 4-[2-[[5-methyl-1-(2-naphthalenyl)1H-pyraol-3-yl]oxy]ethyl]-morpholine hydro-chloride] |  |  |  |  | lack of activity | activity in the late phase of the formalin test (formalin-induced pain; 15 mg/kg i.p.): inactive; paw licking and biting behavior, late phase of the formalin test (formalin-induced pain; 30 mg/kg i.p.): showed activity; nociceptive response, late phase of the formalin test, joint administration (formalin-induced pain; JNJ 5207852 10 mg/kg + S1RA 30 mg/kg i.p.): did not affect the activity of the compounds |
| c1cc(OCCCN2CCCCC2)ccc1CN1CCCCC1 [JNJ 5207852, 1-[3-[4-(1-piperidinylmethyl)phenoxy]propyl]piperidine hydrochloride] |  |  |  |  | lack of activity | activity in the late phase of the formalin test (formalin-induced pain; 10 mg/kg i.p.): inactive; paw licking and biting behavior, late phase of the formalin test (formalin-induced pain; 15 and 30 mg/kg i.p.): significantly attenuated; nociceptive response, late phase of the formalin test, joint administration (formalin-induced pain; JNJ 5207852 15 mg/kg + S1RA 15 mg/kg i.p., compared to saline): significantly stronger decrease in nociceptive response |
| COc1ccc(CN(CCN(C)C)c2ccccn2)cc1 [pyrilamine, reference compound] |  |  |  |  |  | scratching behavior, histamine-induced pruritus ([1]; i.p. 30 min before i.d. histamine): significantly reduced scratching behavior; number of scratch bouts, CQ-induced pruritus (CQ-induced pruritus): not effective; scratch bouts, SLIGRL-induced pruritus (SLIGRL-induced pruritus): not effective |
